Structures can show the parent of a compound that is named as a salt.

In data set [1] the test system is HiBiT-tagged MYB protein. In words: HiBiT protein abundance assay, MYB (K562 HiBiT knock-in cells). Format: cell-based, human. The note with it: 24 hours. As to the method:
(§1) Compounds described herein were used to screen for effects on quantitative protein abundance using a HiBit assay system (Promega). Quantitative protein abundance was determined by measuring the protein levels of HiBit-tagged protein targets expressed in cell culture via luminescence using the Nano-Glo HiBiT Lytic Detection System, which uses a split complementation assay format to reconstitute NanoBiT enzyme to generate a luminescent signal. A protein abundance assay was developed such that endogenous protein targets could be modified with the HiBiT peptide tag and their abundance could be assessed after compound treatment. Briefly, K562 cell lines containing a HiBiT-modification were treated with various compounds described herein (e.g., compounds of Formulas (I), (II), or (III)). After treatment for 24 hours, the protein abundance of a specific target was determined by measuring luminescence.
(§2) • Promega Nano-Glo HiBiT Lytic Detection System (cat #N3030) • Corning 384-well TC-treated microplates (cat #3570) • Synthego Engineered Cells Knock-In Clones
(§3) Cells were maintained in IMDM with 10% FBS. Before the assay, cells were diluted with […] growth media (IMDM+1% FBS media) and were seeded in a 384-well plate at a density of 10000 cells/well (for each cell line listed in Table 6). Each compound was prepared as a 10-point 3-fold serial dilution in DMSO with the top dose at a final concentration of 10 μM in the well. Unmodified K562 cells were added at the previously specified density with DMSO to serve as an assay baseline and positive control (PC) and DMSO only with the respective modified cell lines was added to the negative control (NC) columns. Final DMSO concentration was kept at or below 0.25%. Treated cell plates were placed in an incubator at 37° C. with 5% CO2 for 24 hours. After 24 hours, 25 μL of Complete HiBit Lytic reagent was added to each well at room temperature (e.g. one plate requiring 10 mL Lytic Buffer, 100 μL LgBiT Protein, 200 μL Lytic Substrate), shaken for 5 minutes at 600 RPM, then left to sit for 10 minutes for signal to stabilize before reading on a Spark Cyto plate reader (Tecan) with a 500 ms measurement time.
(§4) To determine compound effects on protein abundance of each target in Table 6, the percent response for each respective cell line was calculated at each compound concentration as follows:
(§5) For the normalized response at each concentration, a four-parameter logistical regression was fit to the data and the response was interpolated at the 50% value to determine a concentration for protein abundance at 50% (IC50) the untreated control.

Data set [2] relates to HiBiT-tagged HTT protein. Description: HiBiT protein abundance assay, HTT (K562 HiBiT knock-in cells). In kind it is cell-based, human. As to conditions: 24 hours. As to the method: as §1, §2, §3, §4, §5
On the technique in general: The HiBiT peptide binds its large partner to form an active luciferase.

Data set [3] deals with Target C. In words: HiBiT protein abundance assay, Target C (K562 HiBiT knock-in cells). In kind it is cell-based, human. The note with it: 24 hours. As to the method: as §2, §3, §4, §5
Data set [4] relates to K562 cells. Description: Cell Titer Glo 2.0 cell viability assay in K562 cells. The note with it: 72 hours. A general note: ATP-based viability assays read luminescence as a measure of living cells.
The subject of data set [5] is HTT mRNA. Description: Splicing RT-qPCR assay, HTT canonical (CJ) and alternative (AJ) junction mRNA. As to conditions: Homo sapiens, A673 or K562 cells, 24 hours; for IC50: decrease in canonical junction mRNA; for AC50: increase in alternative junction mRNA. Format: cell-based. Summed up: (§6)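 Splice switching was scored by qPCR detection of the new alternative-exon junction (AJ) alongside the canonical junction (CJ). Cell lines A673 or K562 received compound 24 h, top dose 10 uM final.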
(Real-time PCR tracks product formation cycle by cycle.)

The subject of data set [6] is MYB mRNA. Description: Splicing RT-qPCR assay, MYB canonical (CJ) and alternative (AJ) junction mRNA. In kind it is cell-based. The note with it: Homo sapiens, A673 or K562 cells, 24 hours; for IC50: decrease in canonical junction mRNA; for AC50: increase in alternative junction mRNA. Summed up: as §6
The test system of data set [7] is HTT mRNA. Description: Gene panel canonical junction qPCR assay, HTT CJ mRNA decrease. The note with it: Homo sapiens, canonical junction qPCR, read-out: HTT IC50 (decrease in CJ mRNA levels). Format: cell-based, human. The gist of the method:
(§7)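 IC50 values describe loss of canonical-junction transcript, fitted by 4-parameter logistic to percent response derived from fixed ΔCt windows. Read-out: RT-qPCR on lysates of compound-treated K562 or A673 cells, probes overlapping the exon junction, ΔΔCt versus housekeeping gene and DMSO control.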

The subject of data set [8] is MYB mRNA. In words: Gene panel canonical junction qPCR assay, MYB CJ mRNA decrease. In kind it is cell-based, human. The note with it: Homo sapiens, canonical junction qPCR, read-out: MYB IC50 (decrease in CJ mRNA levels). Summed up:
as §7

Data set [9] has as its system SMN2 mRNA. In words: Gene panel canonical junction qPCR assay, SMN2 CJ mRNA decrease. Format: cell-based, human. The note with it: Homo sapiens, canonical junction qPCR, read-out: SMN2 IC50 (decrease in CJ mRNA levels). The gist of the method:
as §7

Data set [10] has as its system Target C mRNA. Description: Gene panel canonical junction qPCR assay, Target C CJ mRNA decrease. The note with it: Homo sapiens, canonical junction qPCR, read-out: Target C IC50 (decrease in CJ mRNA levels). In kind it is cell-based. Summed up:
as §7

Regarding `Cc1cn2cc(NC(=O)c3ccc(N4CCNCC4)c4ccnnc34)cc(F)c2n1` [Compound 101], the IC50 in [1] is under 0.1 µM; in [2] it was 0.1 to 1 µM; in data set [3], 0.1 to 1 µM. Moreover, in [4], the Viability entry was “B (B represents 100-1000 nM)”.
For `Cc1cn2cc(NC(=O)c3ccc(C4CCNCC4)c4ccnnc34)cc(F)c2n1` [Compound 103], the values for the IC50 in [1], in data set [2] and in [3] were under 0.1 µM, 0.1 to 1 µM and 1 to 10 µM, respectively. For the same molecule, the Viability entry in [4] is “A (A represents <100 nM)”.
Consider `Cc1cn2cc(NC(=O)c3ccc(N4CCNCC4)c4cncnc34)cc(F)c2n1` [Compound 112], for which the IC50 in [1] was under 0.1 µM; in [2], 0.1 to 1 µM; in data set [3], 1 to 10 µM. The Viability result in data set [4] is on record as “B (B represents 100-1000 nM)”.
`Cc1nc2c(F)cc(NC(=O)c3ccc(N4CCNCC4)c4ccnnc34)cc2o1` [Compound 117]: the 50% inhibitory concentration (IC50) in [1] is under 0.1 µM; in [2], 0.1 to 1 µM; in [3], 1 to 10 µM. Moreover, the Viability result in [4] is given as “B (B represents 100-1000 nM)”.
Consider `Cc1cn2nc(NC(=O)c3ccc(N4CCNCC4)c4ccnnc34)nc2c(C)n1` [Compound 122], for which the concentration for half-maximal inhibition (IC50) in data set [1], in data set [2] and in data set [3] was 1 to 10 µM in each case. In addition, the Viability entry in [4] was “C (C represents 1000-9999 nM)”.
With `Cc1cn2cc(NC(=O)c3ccc(N4CCNCC4)c4ccnnc34)cc(Cl)c2n1` [Compound 124], the IC50 in data set [1] is under 0.1 µM; in data set [2], 1 to 10 µM; in [3], 1 to 10 µM. Also, in [4], the Viability result is recorded as “B (B represents 100-1000 nM)”.
`CCNC1CCN(c2ccc(C(=O)Nc3cc(F)c4nc(C)cn4c3)c3nnccc23)CC1` [Compound 139, 5-[4-(ethylamino)piperidin-1-yl]-N-{8-fluoro-2-methylimidazo[1,2-a]pyridin-6-yl}cinnoline-8-carboxamide]: the values for the IC50 in data set [1], in data set [2] and in data set [3] were under 0.1 µM, 0.1 to 1 µM and 1 to 10 µM, respectively. Also, the Viability result in data set [4] is “A (A represents <100 nM)”.
The corresponding values for `Cc1cn2cc(NC(=O)c3ccc(N4CCNC(C)C4)c4nccnc34)cc(F)c2n1` (centres unmarked) [Compound 157] are under 0.1 µM, 1 to 10 µM, 1 to 10 µM and “A (A represents <100 nM)”.
In the case of `Cc1cn2cc(NC(=O)c3ccc(N4CCC(N(C)C)CC4)c4nccnc34)cc(F)c2n1` [Compound 158, 8-(4-(dimethylamino)piperidin-1-yl)-N-(8-fluoro-2-methylimidazo[1,2-a]pyridin-6-yl)quinoxaline-5-carboxamide], the IC50 is 0.1 to 1 µM in [1], 0.1 to 1 µM in data set [2] and 1 to 10 µM in data set [3]. Besides, the Viability entry in [4] was “B (B represents 100-1000 nM)”.
Turning to `Cc1cn2cc(NC(=O)c3ccc(N4CCC5(CCN5)CC4)c4ccnnc34)cc(F)c2n1` [Compound 171, 5-{1,7-diazaspiro[3.5]nonan-7-yl}-N-{8-fluoro-2-methylimidazo[1,2-a]pyridin-6-yl}cinnoline-8-carboxamide trifluoroacetate], the IC50 is under 0.1 µM in data set [1], 0.1 to 1 µM in data set [2] and 1 to 10 µM in [3]. Further, the Viability entry in data set [4] is on record as “B (B represents 100-1000 nM)”.
The corresponding values for `Cc1cn2cc(NC(=O)c3ccc(N4CCN[C@H](C)C4)c4nccnc34)cc(F)c2n1` [Compound 188, N-{8-fluoro-2-methylimidazo[1,2-a]pyridin-6-yl}-8-(3-methylpiperazin-1-yl)quinoxaline-5-carboxamide] are under 0.1 µM, 1 to 10 µM, 1 to 10 µM and “B (B represents 100-1000 nM)”.
`Cc1ccc2c(N3CCC4(CCN4)CC3)ccc(C(=O)Nc3cc(F)c4nc(C)cn4c3)c2n1` [Compound 195, 5-{1,7-diazaspiro[3.5]nonan-7-yl}-N-{8-fluoro-2-methylimidazo[1,2-a]pyridin-6-yl}-2-methylquinoline-8-carboxamide]: the results for the IC50 in data set [1], in data set [2] and in data set [3] were under 0.1 µM, 0.1 to 1 µM and 0.1 to 1 µM, respectively. In addition, in data set [4], the Viability result is listed as “A (A represents <100 nM)”.
As for `Cc1cnc2c(C(=O)Nc3cc(F)c4nc(C)cn4c3)ccc(N3CCNCC3)c2n1` [Compound 198], the IC50 in data set [1], in data set [2] and in data set [3] was 0.1 to 1 µM each time. For the same molecule, in data set [4], the Viability result is recorded as “B (B represents 100-1000 nM)”.
Take `CN[C@H]1CCN(c2ccc(C(=O)Nc3cc(F)c4nc(C)cn4c3)c3nc(OC)cnc23)C1` [Compound 203, (S)—N-{8-fluoro-2-methylimidazo[1,2-a]pyridin-6-yl}-3-methoxy-8-[3-(methylamino)pyrrolidin-1-yl]quinoxaline-5-carboxamide; trifluoroacetic acid]: the IC50 in data set [1], in data set [2] and in [3] was 1 to 10 µM each time. In data set [4], the Viability result was “C (C represents 1000-9999 nM)”.
Regarding `COc1nc(NC(=O)c2ccc(N3C[C@@H](C)N[C@@H](C)C3)c3cccnc23)cn2cc(C)nc12` [Compound 383], the 50% inhibitory concentration (IC50) in data set [5] was 1 to 10 µM; in [6], 0.1 to 1 µM; in data set [7], 1 to 10 µM; in data set [8], 0.1 to 1 µM; in [9], under 0.1 µM; in [10] it was 1 to 10 µM. Further, the half-maximal activity concentration (AC50) in [5] was in the range of 1 to 10 µM; in data set [6] it was 0.1 to 1 µM. Further, the Viability entry in data set [4] was “B (B represents 100-1000 nM)”.
Consider `COc1nc(NC(=O)c2ccc(N3C[C@H](C)N[C@@H](C)C3)c3cccnc23)cn2cc(C)nc12` [Compound 384], for which the 50% inhibitory concentration (IC50) is 1 to 10 µM in [5]; under 0.1 µM in [6]; 1 to 10 µM in [7]; under 0.1 µM in [8]; under 0.1 µM in [9]; over 10 µM in data set [10]. The values for the concentration at half-maximal activity (AC50) in data set [5] and in data set [6] were 1 to 10 µM and under 0.1 µM, respectively. Moreover, in data set [4], the Viability entry is reported as “B (B represents 100-1000 nM)”.
In the case of `COc1ccc2c(N3C[C@H](C)N[C@@H](C)C3)ccc(C(=O)Nc3cc(F)c4nc(C)cn4c3)c2n1` [Compound 385], the concentration for half-maximal inhibition (IC50) was 1 to 10 µM in data set [5]; under 0.1 µM in [6]; 1 to 10 µM in data set [7]; under 0.1 µM in [8]; under 0.1 µM in [9]; over 10 µM in [10]. Besides, the concentration at half-maximal activity (AC50) is 1 to 10 µM in [5] and under 0.1 µM in [6]. Moreover, the Viability result in [4] was “B (B represents 100-1000 nM)”.
As to `COc1ncc2c(N3C[C@H](C)N[C@@H](C)C3)ccc(C(=O)Nc3cn4cc(C)nc4c(OC)n3)c2n1` [Compound 387], the IC50 in [5] was 1 to 10 µM; in data set [6], under 0.1 µM; in [7] it was 1 to 10 µM; in data set [8], under 0.1 µM; in [9] it was under 0.1 µM; in [10], 1 to 10 µM. Also, the AC50 is 1 to 10 µM in data set [5] and under 0.1 µM in data set [6]. Further, the Viability entry in [4] is given as “B (B represents 100-1000 nM)”.

The IC50 is the midpoint of a concentration-inhibition curve. For orientation: AC50 means the concentration giving half of the maximal activity seen. Low readings indicate activity at low concentration, high ones activity only at high concentration.

Values taken from US20240409536A1, “COMPOUNDS AND METHODS FOR MODULATING SPLICING” (REMIX THERAPEUTICS INC., priority 2021, published 2024).
